Test results: ChEMBL document CHEMBL3885881, “DrugMatrix”

Organism: Rattus norvegicus
Assay: DrugMatrix - Regimen: Daily Repeat
Type: toxicity, organism-based, Sprague-Dawley
Parameters: regimen Daily Repeat, gender Male, age 6-8 weeks
Conditions: in vivo, po, 72 h, route oral GAVAGE, time 3 day, vehicle .5 % CMC; for ABSOLUTE BASOPHIL / ABSOLUTE EOSINOPHIL / ABSOLUTE LYMPHOCYTE / ABSOLUTE MONOCYTE / ABSOLUTE SEGMENTED NEUTROPHIL / BASOPHIL / EOSINOPHIL / ERYTHROCYTE COUNT / HEMATOCRIT / HEMOGLOBIN / LEUKOCYTE COUNT / LYMPHOCYTE / MEAN CORPUSCULAR HEMOGLOBIN / MEAN CORPUSCULAR HEMOGLOBIN CONCENTRATION / MONOCYTE / NUCLEATED RED BLOOD CELLS / PLATELET COUNT / NEUTROPHIL: tissue Blood
[1] = 0 mg/kg, tissue Plasma, dose level Control
[2] = 33 mg/kg, tissue Plasma, dose level High
[3] = […], dose 3.3 mg/Kg, dose level Low
[4] = […], tissue Plasma, dose 3.3 mg/Kg, dose level Low

AURANOFIN
ABSOLUTE BASOPHIL (0 mg/kg, dose level Control): 0 CELLS/uL | ABSOLUTE EOSINOPHIL (0 mg/kg, dose level Control): 8.83 CELLS/uL | ABSOLUTE LYMPHOCYTE (0 mg/kg, dose level Control): 7222.33 CELLS/uL | ABSOLUTE MONOCYTE (0 mg/kg, dose level Control): 0 CELLS/uL | ABSOLUTE SEGMENTED NEUTROPHIL (0 mg/kg, dose level Control): 752.17 CELLS/uL | BASOPHIL (0 mg/kg, dose level Control): 0% | EOSINOPHIL (0 mg/kg, dose level Control): 0.17% | ERYTHROCYTE COUNT (0 mg/kg, dose level Control): 5.22 x10E6/uL | HEMATOCRIT (0 mg/kg, dose level Control): 32.6% | HEMOGLOBIN (0 mg/kg, dose level Control): 12.43 G/DL | LEUKOCYTE COUNT (0 mg/kg, dose level Control): 7.98 x10E3/uL | LYMPHOCYTE (0 mg/kg, dose level Control): 91.17% | MEAN CORPUSCULAR HEMOGLOBIN (0 mg/kg, dose level Control): 23.87 pg | MEAN CORPUSCULAR HEMOGLOBIN CONCENTRATION (0 mg/kg, dose level Control): 38.18 G/DL | MONOCYTE (0 mg/kg, dose level Control): 0% | NUCLEATED RED BLOOD CELLS (0 mg/kg, dose level Control): 0 /100WBC | PLATELET COUNT (0 mg/kg, dose level Control): 1082.33 x10E3/uL | ALANINE AMINOTRANSFERASE [1]: 42.17 u/L | ALKALINE PHOSPHATASE [1]: 451.17 u/L | ASPARTATE AMINOTRANSFERASE [1]: 76.17 u/L | BLOOD UREA NITROGEN [1]: 13.33 mg/dL | CARBON DIOXIDE [1]: 31.67 mmol/L | CHLORIDE [1]: 96.5 MEQ/L | CHOLESTEROL [1]: 78 mg/dL | CREATINE PHOSPHOKINASE [1]: 216.5 u/L | CREATININE [1]: 0.22 mg/dL | GLUCOSE [1]: 137 mg/dL | LACTATE DEHYDROGENASE [1]: 138.5 u/L | PHOSPHORUS [1]: 12.68 mg/dL | POTASSIUM [1]: 6.23 MEQ/L | TOTAL BILIRUBIN [1]: 0.15 mg/dL | TOTAL PROTEIN [1]: 6.33 G/DL | URIC ACID [1]: 1.1 mg/dL | ABSOLUTE BASOPHIL (33 mg/kg, dose level High): 0 CELLS/uL | ABSOLUTE EOSINOPHIL (33 mg/kg, dose level High): 19 CELLS/uL | ABSOLUTE LYMPHOCYTE (33 mg/kg, dose level High): 6925.33 CELLS/uL | ABSOLUTE MONOCYTE (33 mg/kg, dose level High): 0 CELLS/uL | ABSOLUTE SEGMENTED NEUTROPHIL (33 mg/kg, dose level High): 722.33 CELLS/uL | BASOPHIL (33 mg/kg, dose level High): 0% | EOSINOPHIL (33 mg/kg, dose level High): 0.33% | ERYTHROCYTE COUNT (33 mg/kg, dose level High): 5.07 x10E6/uL | HEMATOCRIT (33 mg/kg, dose level High): 31.53% | HEMOGLOBIN (33 mg/kg, dose level High): 12.07 G/DL | LEUKOCYTE COUNT (33 mg/kg, dose level High): 7.67 x10E3/uL | LYMPHOCYTE (33 mg/kg, dose level High): 90.67% | MEAN CORPUSCULAR HEMOGLOBIN (33 mg/kg, dose level High): 23.77 pg | MEAN CORPUSCULAR HEMOGLOBIN CONCENTRATION (33 mg/kg, dose level High): 38.27 G/DL | MONOCYTE (33 mg/kg, dose level High): 0% | NEUTROPHIL (33 mg/kg, dose level High): 9% | NUCLEATED RED BLOOD CELLS (33 mg/kg, dose level High): 0 /100WBC | PLATELET COUNT (33 mg/kg, dose level High): 1030 x10E3/uL | ALANINE AMINOTRANSFERASE [2]: 55.67 u/L | ALBUMIN [2]: 3.8 G/DL | ALKALINE PHOSPHATASE [2]: 342.67 u/L | ASPARTATE AMINOTRANSFERASE [2]: 80.33 u/L | BLOOD UREA NITROGEN [2]: 13.33 mg/dL | CARBON DIOXIDE [2]: 31.67 mmol/L | CHOLESTEROL [2]: 93.33 mg/dL | CREATINE PHOSPHOKINASE [2]: 251.67 u/L | CREATININE [2]: 0.18 mg/dL | GLUCOSE [2]: 139 mg/dL | LACTATE DEHYDROGENASE [2]: 122 u/L | SODIUM [2]: 153.7 MEQ/L | TOTAL BILIRUBIN [2]: 0.2 mg/dL | TOTAL PROTEIN [2]: 5.87 G/DL | URIC ACID [2]: 1.13 mg/dL | ABSOLUTE BASOPHIL [3]: 0 CELLS/uL | ABSOLUTE EOSINOPHIL [3]: 46.33 CELLS/uL | ABSOLUTE LYMPHOCYTE [3]: 6434 CELLS/uL | ABSOLUTE MONOCYTE [3]: 30 CELLS/uL | ABSOLUTE SEGMENTED NEUTROPHIL [3]: 1123 CELLS/uL | BASOPHIL [3]: 0% | EOSINOPHIL [3]: 0.67% | ERYTHROCYTE COUNT [3]: 5.02 x10E6/uL | HEMATOCRIT [3]: 31.27% | HEMOGLOBIN [3]: 11.83 G/DL | LEUKOCYTE COUNT [3]: 7.63 x10E3/uL | LYMPHOCYTE [3]: 84.33% | MEAN CORPUSCULAR HEMOGLOBIN [3]: 23.57 pg | MEAN CORPUSCULAR HEMOGLOBIN CONCENTRATION [3]: 37.83 G/DL | MONOCYTE [3]: 0.33% | NEUTROPHIL [3]: 14.67% | NUCLEATED RED BLOOD CELLS [3]: 0.33 /100WBC | PLATELET COUNT [3]: 1052.33 x10E3/uL | ALANINE AMINOTRANSFERASE [4]: 42.33 u/L | ALBUMIN [4]: 4.1 G/DL | ALKALINE PHOSPHATASE [4]: 371 u/L | ASPARTATE AMINOTRANSFERASE [4]: 73 u/L | BLOOD UREA NITROGEN [4]: 13 mg/dL | CARBON DIOXIDE [4]: 33 mmol/L | CHLORIDE [4]: 97 MEQ/L | CHOLESTEROL [4]: 76.67 mg/dL | CREATINE PHOSPHOKINASE [4]: 140 u/L | CREATININE [4]: 0.18 mg/dL | GLUCOSE [4]: 143 mg/dL | LACTATE DEHYDROGENASE [4]: 96 u/L | LIPASE [4]: 8.33 u/L | POTASSIUM [4]: 6.12 MEQ/L | SODIUM [4]: 145.6 MEQ/L | TOTAL BILIRUBIN [4]: 0.17 mg/dL | TOTAL PROTEIN [4]: 6.17 G/DL | URIC ACID [4]: 1 mg/dL
